How the values were obtained:
BRAF = molecular target: T1, BRAF (Homo sapiens, UniProt P15056); assay: HotSpot kinase assay; assay type: biochemical; conditions: read-out: % Enzyme Activity (relative to DMSO controls)
T1 construct: purchased Reaction Biology Corporation

CAMK2b = molecular target: T2, CAMK2b (Homo sapiens, UniProt Q13554); assay: HotSpot kinase assay; assay type: biochemical; conditions: read-out: % Enzyme Activity (relative to DMSO controls)
T2 construct: purchased Reaction Biology Corporation

CAMKK1 = molecular target: T3, CAMKK1 (Homo sapiens, UniProt Q8N5S9); assay: biochemical; conditions: read-out: % Enzyme Activity (relative to DMSO controls)
T3 construct: purchased Reaction Biology Corporation

CDK9/cyclin T2 = molecular target: T4, CDK9/cyclin T2 (Homo sapiens, UniProt P50750); assay: HotSpot kinase assay; assay type: biochemical; conditions: read-out: % Enzyme Activity (relative to DMSO controls)
T4 construct: purchased Reaction Biology Corporation

CLK3 = molecular target: T5, CLK3 (Homo sapiens, UniProt P49761); assay: HotSpot kinase assay; assay type: biochemical; conditions: read-out: % Enzyme Activity (relative to DMSO controls)
T5 construct: purchased Reaction Biology Corporation

CTK/MATK = molecular target: T6, CTK/MATK (Homo sapiens, UniProt P42679); assay: HotSpot kinase assay; assay type: biochemical; conditions: read-out: % Enzyme Activity (relative to DMSO controls)
T6 construct: purchased Reaction Biology Corporation

DCAMKL1 = molecular target: T7, DCAMKL1 (Homo sapiens, UniProt O15075); assay: HotSpot kinase assay; assay type: biochemical; conditions: read-out: % Enzyme Activity (relative to DMSO controls)
T7 construct: purchased Reaction Biology Corporation

DDR2 = molecular target: T8, DDR2 (Homo sapiens, UniProt Q16832); assay: HotSpot kinase assay; assay type: biochemical; conditions: read-out: % Enzyme Activity (relative to DMSO controls)
T8 construct: purchased Reaction Biology Corporation

DMPK = molecular target: T9, DMPK (Homo sapiens, UniProt Q09013); assay: HotSpot kinase assay; assay type: biochemical; conditions: read-out: % Enzyme Activity (relative to DMSO controls)
T9 construct: purchased Reaction Biology Corporation

DYRK2 = molecular target: T10, DYRK2 (Homo sapiens, UniProt Q92630); assay: HotSpot kinase assay; assay type: biochemical; conditions: read-out: % Enzyme Activity (relative to DMSO controls)
T10 construct: purchased Reaction Biology Corporation

EPHB2 = molecular target: T11, EPHB2 (Homo sapiens, UniProt P29323); assay: HotSpot kinase assay; assay type: biochemical; conditions: read-out: % Enzyme Activity (relative to DMSO controls)
T11 construct: purchased Reaction Biology Corporation

ERK5/MAPK7 = molecular target: T12, ERK5/MAPK7 (Homo sapiens, UniProt Q13164); assay: HotSpot kinase assay; assay type: biochemical; conditions: read-out: % Enzyme Activity (relative to DMSO controls)
T12 construct: purchased Reaction Biology Corporation

FMS = molecular target: T13, FMS (Homo sapiens, UniProt P07333); assay: HotSpot kinase assay; assay type: biochemical; conditions: read-out: % Enzyme Activity (relative to DMSO controls)
T13 construct: purchased Reaction Biology Corporation

GCK/MAP4K2 = molecular target: T14, GCK/MAP4K2 (Homo sapiens, UniProt Q12851); assay: HotSpot kinase assay; assay type: biochemical; conditions: read-out: % Enzyme Activity (relative to DMSO controls)
T14 construct: purchased Reaction Biology Corporation

GSK3a = molecular target: T15, GSK3a (Homo sapiens, UniProt P49840); assay: HotSpot kinase assay; assay type: biochemical; conditions: read-out: % Enzyme Activity (relative to DMSO controls)
T15 construct: purchased Reaction Biology Corporation

MASTL = molecular target: T16, MASTL (Homo sapiens, UniProt Q96GX5); assay: HotSpot kinase assay; assay type: biochemical; conditions: read-out: % Enzyme Activity (relative to DMSO controls)
T16 construct: purchased Reaction Biology Corporation

MKK6 = molecular target: T17, MKK6 (Homo sapiens, UniProt P52564); assay: HotSpot kinase assay; assay type: biochemical; conditions: read-out: % Enzyme Activity (relative to DMSO controls)
T17 construct: purchased Reaction Biology Corporation

MKK7 = molecular target: T18, MKK7 (Homo sapiens, UniProt O14733); assay: HotSpot kinase assay; assay type: biochemical; conditions: read-out: % Enzyme Activity (relative to DMSO controls)
T18 construct: purchased Reaction Biology Corporation

MLCK2/MYLK2 = molecular target: T19, MLCK2/MYLK2 (Homo sapiens, UniProt Q9H1R3); assay: HotSpot kinase assay; assay type: biochemical; conditions: read-out: % Enzyme Activity (relative to DMSO controls)
T19 construct: purchased Reaction Biology Corporation

MLK2/MAP3K10 = molecular target: T20, MLK2/MAP3K10 (Homo sapiens, UniProt Q02779); assay: HotSpot kinase assay; assay type: biochemical; conditions: read-out: % Enzyme Activity (relative to DMSO controls)
T20 construct: purchased Reaction Biology Corporation

MNK2 = molecular target: T21, MNK2 (Homo sapiens, UniProt Q9HBH9); assay: HotSpot kinase assay; assay type: biochemical; conditions: read-out: % Enzyme Activity (relative to DMSO controls)
T21 construct: purchased Reaction Biology Corporation

MRCKa/CDC42BPA = molecular target: T22, MRCKa/CDC42BPA (Homo sapiens, UniProt Q5VT25); assay: HotSpot kinase assay; assay type: biochemical; conditions: read-out: % Enzyme Activity (relative to DMSO controls)
T22 construct: purchased Reaction Biology Corporation

MUSK = molecular target: T23, MUSK (Homo sapiens, UniProt O15146); assay: HotSpot kinase assay; assay type: biochemical; conditions: read-out: % Enzyme Activity (relative to DMSO controls)
T23 construct: purchased Reaction Biology Corporation

NLK = molecular target: T24, NLK (Homo sapiens, UniProt Q9UBE8); assay: HotSpot kinase assay; assay type: biochemical; conditions: read-out: % Enzyme Activity (relative to DMSO controls)
T24 construct: purchased Reaction Biology Corporation

PDGFRa = molecular target: T25, PDGFRa (Homo sapiens, UniProt P16234); assay: HotSpot kinase assay; assay type: biochemical; conditions: read-out: % Enzyme Activity (relative to DMSO controls)
T25 construct: purchased Reaction Biology Corporation

PKA = molecular target: T26, PKA (Homo sapiens, UniProt P17612); assay: HotSpot kinase assay; assay type: biochemical
T26 construct: purchased Reaction Biology Corporation

PKAcg = molecular target: T27, PKAcg (Homo sapiens, UniProt P22612); assay: HotSpot kinase assay; assay type: biochemical; conditions: read-out: % Enzyme Activity (relative to DMSO controls)
T27 construct: purchased Reaction Biology Corporation

PKCb1 = molecular target: T28, PKCb1 (Homo sapiens, UniProt P05771); assay: biochemical; conditions: read-out: % Enzyme Activity (relative to DMSO controls)
T28 construct: purchased Reaction Biology Corporation

PKCmu/PRKD1 = molecular target: T29, PKCmu/PRKD1 (Homo sapiens, UniProt Q15139); assay: HotSpot kinase assay; assay type: biochemical; conditions: read-out: % Enzyme Activity (relative to DMSO controls)
T29 construct: purchased Reaction Biology Corporation

PKCnu/PRKD3 = molecular target: T30, PKCnu/PRKD3 (Homo sapiens, UniProt O94806); assay: HotSpot kinase assay; assay type: biochemical; conditions: read-out: % Enzyme Activity (relative to DMSO controls)
T30 construct: purchased Reaction Biology Corporation

SRPK1 = molecular target: T31, SRPK1 (Homo sapiens, UniProt Q96SB4); assay: HotSpot kinase assay; assay type: biochemical; conditions: read-out: % Enzyme Activity (relative to DMSO controls)
T31 construct: purchased Reaction Biology Corporation

SRPK2 = molecular target: T32, SRPK2 (Homo sapiens, UniProt P78362); assay: HotSpot kinase assay; assay type: biochemical; conditions: read-out: % Enzyme Activity (relative to DMSO controls)
T32 construct: purchased Reaction Biology Corporation

TAOK2/TAO1 = molecular target: T33, TAOK2/TAO1 (Homo sapiens, UniProt Q9UL54); assay: HotSpot kinase assay; assay type: biochemical; conditions: read-out: % Enzyme Activity (relative to DMSO controls)
T33 construct: purchased Reaction Biology Corporation

TLK1 = molecular target: T34, TLK1 (Homo sapiens, UniProt Q9UKI8); assay: HotSpot kinase assay; assay type: biochemical; conditions: read-out: % Enzyme Activity (relative to DMSO controls)
T34 construct: purchased Reaction Biology Corporation

ULK1 = molecular target: T35, ULK1 (Homo sapiens, UniProt O75385); assay: biochemical; conditions: read-out: % Enzyme Activity (relative to DMSO controls)
T35 construct: purchased Reaction Biology Corporation

EIF2AK4 = molecular target: T36, EIF2AK4 (Homo sapiens, UniProt Q9P2K8); assay: HotSpot kinase assay; assay type: biochemical; conditions: read-out: % Enzyme Activity (relative to DMSO controls)
T36 construct: purchased Reaction Biology Corporation

[1] = test system: Akt (pAkt T308) in HaCat cells; assay: Akt phosphorylation in response to insulin (confocal); assay type: cell-based, human; conditions: insulin 10 μM, CIMSS 10 or 100 µM
HSV-2(G) = assay: HSV plaque assay, HaCat cells; assay type: cell-based; conditions: Human alphaherpesvirus 2, HaCaT, read-out: inhibition of HSV-2 infection
Procedure: After 48 h incubation, plaques were counted by immunoassay using an anti–human IgG antibody peroxidase conjugate (PA1-86064, Thermo Fisher)[33]. […] Western blots were prepared and probed for gD as a marker of bound virus and β-actin as a control.

in vitro = conditions: human, Huh-7.5 cells infected with SARS-CoV-2

T23 sequence (O15146 24-869): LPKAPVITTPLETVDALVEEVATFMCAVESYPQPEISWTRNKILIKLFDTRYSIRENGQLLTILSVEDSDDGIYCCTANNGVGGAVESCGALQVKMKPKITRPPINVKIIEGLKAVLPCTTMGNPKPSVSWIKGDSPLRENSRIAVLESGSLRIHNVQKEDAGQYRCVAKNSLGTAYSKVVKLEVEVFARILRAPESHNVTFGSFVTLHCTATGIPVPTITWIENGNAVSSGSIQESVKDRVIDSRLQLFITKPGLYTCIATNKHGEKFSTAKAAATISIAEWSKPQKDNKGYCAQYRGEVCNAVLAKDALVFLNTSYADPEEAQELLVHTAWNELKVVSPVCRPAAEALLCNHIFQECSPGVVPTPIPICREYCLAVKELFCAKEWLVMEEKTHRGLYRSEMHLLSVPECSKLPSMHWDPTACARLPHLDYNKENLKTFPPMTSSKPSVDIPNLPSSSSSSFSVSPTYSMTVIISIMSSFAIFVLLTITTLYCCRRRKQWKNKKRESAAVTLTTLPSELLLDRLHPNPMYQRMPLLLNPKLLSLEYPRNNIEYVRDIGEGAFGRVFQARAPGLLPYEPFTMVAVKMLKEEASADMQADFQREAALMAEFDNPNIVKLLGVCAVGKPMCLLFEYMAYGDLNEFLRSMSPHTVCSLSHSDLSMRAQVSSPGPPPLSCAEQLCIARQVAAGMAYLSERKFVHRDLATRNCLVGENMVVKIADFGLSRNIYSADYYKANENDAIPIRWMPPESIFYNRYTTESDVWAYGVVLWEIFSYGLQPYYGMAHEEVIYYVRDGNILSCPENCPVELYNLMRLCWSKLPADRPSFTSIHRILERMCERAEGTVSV
T7 sequence (O15075 whole entry): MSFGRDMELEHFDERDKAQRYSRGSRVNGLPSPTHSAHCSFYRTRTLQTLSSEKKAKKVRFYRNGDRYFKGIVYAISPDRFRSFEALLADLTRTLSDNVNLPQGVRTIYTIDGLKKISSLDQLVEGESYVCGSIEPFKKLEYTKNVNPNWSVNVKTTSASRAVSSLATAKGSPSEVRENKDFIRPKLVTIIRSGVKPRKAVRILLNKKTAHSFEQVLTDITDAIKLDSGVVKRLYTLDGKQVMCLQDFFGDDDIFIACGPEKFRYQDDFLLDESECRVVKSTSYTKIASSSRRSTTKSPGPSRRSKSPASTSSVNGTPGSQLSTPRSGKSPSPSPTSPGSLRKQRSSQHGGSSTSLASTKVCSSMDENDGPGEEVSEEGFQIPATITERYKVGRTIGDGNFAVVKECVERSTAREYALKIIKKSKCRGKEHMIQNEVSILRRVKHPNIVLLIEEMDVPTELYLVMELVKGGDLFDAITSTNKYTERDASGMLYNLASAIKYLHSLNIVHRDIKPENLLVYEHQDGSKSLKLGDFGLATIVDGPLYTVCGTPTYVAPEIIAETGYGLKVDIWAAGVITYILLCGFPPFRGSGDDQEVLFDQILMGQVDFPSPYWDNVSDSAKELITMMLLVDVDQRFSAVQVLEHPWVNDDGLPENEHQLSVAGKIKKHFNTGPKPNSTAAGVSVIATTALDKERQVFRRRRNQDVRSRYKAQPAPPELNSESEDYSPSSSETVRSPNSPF
T12 sequence (Q13164 whole entry): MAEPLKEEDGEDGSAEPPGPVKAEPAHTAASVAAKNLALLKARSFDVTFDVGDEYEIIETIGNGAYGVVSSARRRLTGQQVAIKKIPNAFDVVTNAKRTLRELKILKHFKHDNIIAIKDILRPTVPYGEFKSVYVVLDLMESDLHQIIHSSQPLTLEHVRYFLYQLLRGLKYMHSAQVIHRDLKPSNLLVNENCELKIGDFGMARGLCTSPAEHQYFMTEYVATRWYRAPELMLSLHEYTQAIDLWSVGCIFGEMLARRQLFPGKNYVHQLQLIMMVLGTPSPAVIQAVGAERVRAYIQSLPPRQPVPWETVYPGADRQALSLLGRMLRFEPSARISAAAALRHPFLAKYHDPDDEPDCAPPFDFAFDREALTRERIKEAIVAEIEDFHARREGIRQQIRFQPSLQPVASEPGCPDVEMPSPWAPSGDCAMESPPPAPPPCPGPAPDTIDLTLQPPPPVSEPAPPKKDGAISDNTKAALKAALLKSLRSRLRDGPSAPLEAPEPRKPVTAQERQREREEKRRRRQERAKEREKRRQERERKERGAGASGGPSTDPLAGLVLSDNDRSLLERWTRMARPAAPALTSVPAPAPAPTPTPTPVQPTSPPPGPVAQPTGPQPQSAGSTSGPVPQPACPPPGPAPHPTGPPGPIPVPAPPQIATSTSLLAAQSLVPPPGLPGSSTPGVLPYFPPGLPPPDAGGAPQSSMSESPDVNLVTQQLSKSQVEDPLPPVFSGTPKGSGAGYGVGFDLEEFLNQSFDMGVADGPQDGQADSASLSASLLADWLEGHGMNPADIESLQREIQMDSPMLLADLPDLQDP
T4 sequence (P50750 whole entry): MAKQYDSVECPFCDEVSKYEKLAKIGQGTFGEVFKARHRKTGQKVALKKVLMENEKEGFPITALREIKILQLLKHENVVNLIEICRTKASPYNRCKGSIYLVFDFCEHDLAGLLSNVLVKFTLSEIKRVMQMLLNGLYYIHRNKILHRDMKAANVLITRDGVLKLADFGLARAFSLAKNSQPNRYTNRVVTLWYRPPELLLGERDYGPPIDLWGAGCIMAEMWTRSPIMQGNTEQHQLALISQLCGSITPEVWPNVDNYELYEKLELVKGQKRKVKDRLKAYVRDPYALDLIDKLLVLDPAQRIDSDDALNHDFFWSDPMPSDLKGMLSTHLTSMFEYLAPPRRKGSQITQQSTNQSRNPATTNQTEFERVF
T4 sequence (O60583 whole entry partner): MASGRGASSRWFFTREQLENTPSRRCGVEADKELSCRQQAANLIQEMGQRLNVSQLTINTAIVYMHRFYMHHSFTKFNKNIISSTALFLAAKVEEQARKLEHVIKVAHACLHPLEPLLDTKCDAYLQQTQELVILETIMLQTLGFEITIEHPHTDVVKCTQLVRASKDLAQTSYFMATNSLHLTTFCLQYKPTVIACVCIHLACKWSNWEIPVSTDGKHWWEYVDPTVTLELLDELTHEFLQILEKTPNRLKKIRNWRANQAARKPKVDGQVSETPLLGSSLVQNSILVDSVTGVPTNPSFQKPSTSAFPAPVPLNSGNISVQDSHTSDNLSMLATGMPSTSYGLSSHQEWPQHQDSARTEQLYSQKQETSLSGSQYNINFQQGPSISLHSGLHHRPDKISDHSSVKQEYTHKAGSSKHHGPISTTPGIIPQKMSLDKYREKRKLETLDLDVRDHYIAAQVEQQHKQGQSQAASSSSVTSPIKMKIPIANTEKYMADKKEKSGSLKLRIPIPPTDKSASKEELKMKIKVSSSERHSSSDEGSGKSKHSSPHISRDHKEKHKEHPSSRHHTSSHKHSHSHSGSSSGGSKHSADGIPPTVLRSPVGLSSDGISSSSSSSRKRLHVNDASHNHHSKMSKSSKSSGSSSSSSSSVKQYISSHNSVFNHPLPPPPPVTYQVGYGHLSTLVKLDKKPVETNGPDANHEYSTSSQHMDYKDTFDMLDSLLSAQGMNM
T35 sequence (O75385 whole entry): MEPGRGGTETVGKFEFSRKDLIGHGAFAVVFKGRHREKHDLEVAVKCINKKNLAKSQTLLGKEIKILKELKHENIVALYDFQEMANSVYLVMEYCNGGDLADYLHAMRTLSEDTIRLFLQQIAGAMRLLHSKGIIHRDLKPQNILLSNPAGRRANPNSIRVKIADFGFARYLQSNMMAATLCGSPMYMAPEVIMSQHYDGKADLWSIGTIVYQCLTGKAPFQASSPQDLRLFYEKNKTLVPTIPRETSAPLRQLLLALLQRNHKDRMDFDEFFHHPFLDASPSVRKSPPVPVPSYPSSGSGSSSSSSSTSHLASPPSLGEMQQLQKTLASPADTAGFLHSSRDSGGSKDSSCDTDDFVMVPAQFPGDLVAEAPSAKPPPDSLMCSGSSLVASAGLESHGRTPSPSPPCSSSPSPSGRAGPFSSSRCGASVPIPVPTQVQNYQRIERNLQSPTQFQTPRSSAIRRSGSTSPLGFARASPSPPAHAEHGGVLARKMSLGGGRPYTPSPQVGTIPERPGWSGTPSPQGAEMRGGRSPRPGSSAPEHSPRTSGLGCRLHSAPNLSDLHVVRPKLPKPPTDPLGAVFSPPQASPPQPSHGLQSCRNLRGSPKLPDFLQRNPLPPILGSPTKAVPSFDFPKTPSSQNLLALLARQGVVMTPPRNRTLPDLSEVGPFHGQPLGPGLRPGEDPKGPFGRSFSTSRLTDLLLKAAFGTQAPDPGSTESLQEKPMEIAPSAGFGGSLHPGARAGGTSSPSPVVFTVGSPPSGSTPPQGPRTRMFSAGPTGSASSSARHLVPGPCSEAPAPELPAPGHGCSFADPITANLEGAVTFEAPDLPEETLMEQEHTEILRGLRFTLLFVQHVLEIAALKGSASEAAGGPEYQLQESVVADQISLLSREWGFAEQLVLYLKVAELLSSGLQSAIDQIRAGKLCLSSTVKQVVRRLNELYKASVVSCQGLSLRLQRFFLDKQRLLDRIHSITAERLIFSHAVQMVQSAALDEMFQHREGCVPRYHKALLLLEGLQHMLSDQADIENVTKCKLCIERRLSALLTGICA
T15 sequence (P49840 whole entry): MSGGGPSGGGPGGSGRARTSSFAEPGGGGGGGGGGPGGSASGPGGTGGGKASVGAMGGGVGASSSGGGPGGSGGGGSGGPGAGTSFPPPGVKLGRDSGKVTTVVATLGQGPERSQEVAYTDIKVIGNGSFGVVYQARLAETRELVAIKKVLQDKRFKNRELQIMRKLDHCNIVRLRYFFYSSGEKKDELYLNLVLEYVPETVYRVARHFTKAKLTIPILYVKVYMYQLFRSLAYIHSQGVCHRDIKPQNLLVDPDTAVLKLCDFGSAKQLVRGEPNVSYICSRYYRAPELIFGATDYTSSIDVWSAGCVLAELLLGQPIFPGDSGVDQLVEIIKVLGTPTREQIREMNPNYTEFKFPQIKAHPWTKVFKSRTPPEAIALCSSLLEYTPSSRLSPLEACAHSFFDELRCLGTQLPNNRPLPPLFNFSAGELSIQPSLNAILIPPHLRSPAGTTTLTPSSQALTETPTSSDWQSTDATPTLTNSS

CO[C@@H]1[C@H](N(C)C(=O)CCC(=O)NCc2cn(CCCS(=O)(=O)O)nn2)C[C@H]2O[C@]1(C)n1c3ccccc3c3c4c(c5c6ccccc6n2c5c31)C(=O)NC4 [CIMSS]
remaining activity at 10 µM (BRAF): 132%
remaining activity at 10 µM (CAMK2b): 3.03%
remaining activity at 10 µM (CAMKK1): 1%
remaining activity at 10 µM (CDK9/cyclin T2): 8.55%
remaining activity at 10 µM (CLK3): 35.4%
remaining activity at 10 µM (CTK/MATK): 24.6%
remaining activity at 10 µM (DCAMKL1): 83.7%
remaining activity at 10 µM (DDR2): 1.67%
remaining activity at 10 µM (DMPK): 76.5%
remaining activity at 10 µM (DYRK2): 9.12%
remaining activity at 10 µM (EPHB2): 28.5%
remaining activity at 10 µM (ERK5/MAPK7): 84.5%
remaining activity at 10 µM (FMS): 0.52%
remaining activity at 10 µM (GCK/MAP4K2): 4.74%
remaining activity at 10 µM (GSK3a): 2.72%
remaining activity at 10 µM (MASTL): 33.8%
remaining activity at 10 µM (MKK6): 59.7%
remaining activity at 10 µM (MKK7): 96.2%
remaining activity at 10 µM (MLCK2/MYLK2): 27.3%
remaining activity at 10 µM (MLK2/MAP3K10): 1.86%
remaining activity at 10 µM (MNK2): 4.79%
remaining activity at 10 µM (MRCKa/CDC42BPA): 71.3%
remaining activity at 10 µM (MUSK): 3.33%
remaining activity at 10 µM (NLK): 73%
remaining activity at 10 µM (PDGFRa): 6.05%
IC50 (PKA; Supplementary Table 1, read-out: IC50 (Molar concentration)): 42.3 nM
remaining activity at 10 µM (PKA; read-out: % Enzyme Activity (relative to DMSO controls), 10µM): 6.32%
remaining activity at 10 µM (PKAcg): 2.07%
remaining activity at 10 µM (PKCb1): 2.83%
remaining activity at 10 µM (PKCmu/PRKD1): 30.3%
remaining activity at 10 µM (PKCnu/PRKD3): 11.4%
remaining activity at 10 µM (SRPK1): 9.17%
remaining activity at 10 µM (SRPK2): 8.02%
remaining activity at 10 µM (TAOK2/TAO1): 36.3%
remaining activity at 10 µM (TLK1): 26.1%
remaining activity at 10 µM (ULK1): 13.6%
remaining activity at 10 µM (EIF2AK4): 9.5%
block of Akt phosphorylation in response to insulin [1]: did not block
inhibition at 10 µM (HSV-2(G)): > 75%
viability at 24 h, 0.78125 µM (in vitro): 84.7%
viability at 24 h, 1.5625 µM (in vitro): 85.5%
viability at 24 h, 3.125 µM (in vitro): 87.6%
viability at 24 h, 25 µM (in vitro): 87.9%
viability at 24 h, 50 µM (in vitro): 97.2%
viability at 72 h, 0.78125 µM (in vitro): 94.8%
viability at 72 h, 25 µM (in vitro): 80.4%
viability at 72 h, 50 µM (in vitro): 70.1%
